The melting point is the temperature, or range, at which the solid turns liquid.

As to `O=C(Nc1ccc2[nH]ncc2c1)O[C@@H](c1cccc(I)c1)[C@@H]1CCCCN1`, the melting point came to 126 °C.
In the case of `COc1ccc(N(C(=O)CN2C(=O)C(Cc3nn(Cc4ccccc4)c4ccccc34)(OC)C(=O)Nc3ccccc32)C(C)C)cc1` (stereo unspecified) it was 202 to 204 °C.
As for `O=C(O)c1ccc(-c2cnc3[nH]c(=O)n(CC4CCCCC4)c3n2)cc1`, the melting point was greater than 350 °C.
`CC(C(=O)N1c2ccccc2C(=O)N(C)c2cccnc21)N1CCN(C)CC1` (stereo unspecified): the melting point was 206 to 208 °C.
Compound `CCOc1nc2c(Cl)cccc2s1` showed a melting point of 43 to 45 °C.
Take `NS(=O)(=O)c1ccccc1OCCO`: the melting point lay in the range of 94 to 99 °C.
The same measure for `C[C@@H]1CN(c2ccc(C(F)(F)F)nc2)C[C@H](C)N1CC(=O)N1CC=C(c2ccc3c(c2)OCCO3)CC1`: 200 to 201 °C; for `O=C(CBr)c1cccc(OCc2ccc3ccc(Cl)cc3n2)c1`: 110 to 112 °C.
Consider `CCOC(=O)C1=C(N)N=C(OCC)C(C(=O)OCC)C1c1cccc([N+](=O)[O-])c1` (stereo unspecified), for which the melting point was 129 °C.
On to `O=C(O)c1cc(OCc2ccccc2)c(-c2ccccc2)c([N+](=O)[O-])c1`, for which the melting point lay within 188 to 190 °C.
`COc1cccc2c1CC(C(=O)NCCOc1ccc(C(=O)O)cc1)N2S(=O)(=O)c1ccc(-c2ccc(F)cc2Cl)cc1` (stereo unspecified) yielded a melting point of 190 to 204 °C.
In the case of `O=C(O)CN1C(=O)C(NC(=O)C(Cc2ccccc2)SC(=O)c2ccccc2)CCc2ccccc21` (stereo unspecified) it was 170 to 171 °C.
In the case of `COCCCc1nnc(-c2ccc(-c3ccccc3)nc2)n1-c1cccc(C#N)c1C` it was 144 to 145 °C; in that of `CC(C)(C)c1cc(Oc2ccc(Br)cc2)cc(C(C)(C)C)c1`, 98 to 100 °C.
`C=C1CCC2C3CC=C4C=C(OC)CCC4(C)C3CCC12C` (stereo unspecified) had a melting point of 97 to 99 °C.
The same measure for `CC1Nc2ccc(-c3cccc(Cl)c3)cc2C(C)(C)O1` (stereo unspecified): 144 to 146 °C; for `CCN(CC)C(=O)c1cncc(OC2SCC(O)C(O)C2O)c1` (stereo unspecified): 143 °C.
In the case of `Cc1cc2c(cc1S(=O)(=O)c1cc(Cl)ccc1Cl)OC(C(=O)O)O2` (stereo unspecified), the melting point was 155 to 157 °C.
In the case of `COc1ccc(C(=O)O)c([N+](=O)[O-])c1` it was 193 to 195 °C.
For the compound `COc1nsc2c1C(=O)CCC2`, the melting point fell in the range of 45 to 46 °C.
Compound `Nc1cc(Oc2cc(N)cc(C(F)(F)F)c2)cc(C(F)(F)F)c1` came in with a melting point of 223 to 224 °C.
The same measure for `CS(=O)(=O)c1ccc(-c2c(Br)c3cccccc-3c2-c2ccccc2)cc1`: 172 to 173 °C.
The compound `N#CC1(Nc2ccc(Cl)cc2)CCN(C(=O)c2cc(C(F)(F)F)cc(C(F)(F)F)c2)CC1` gave a melting point of 176 to 180 °C.
For `N=C1SCCN1c1ccc(N)cc1`, the melting point came out at 148 °C.
The compound `O=c1c(CCCc2nc3ccccc3s2)cc2cccnc2n1-c1cccc([N+](=O)[O-])c1` showed a melting point of 185 to 186 °C.
In the case of `CC1(COC2CC3C4CCC5=CC(=O)CCC5(C)C4(F)C(O)CC3(C)C2(O)C(=O)CO)CO1` (stereo unspecified) it was 223 to 227 °C.
Turning to `O=S(=O)(Cc1ccccc1)N1CCC[C@H]1C(=S)OCCCc1ccccc1`, the melting point lay in the range of 62 to 64 °C.
The compound `CC(=O)NNC1=Nc2sc(Cl)cc2C(c2ccccc2F)=NC1` displayed a melting point of 207 to 209 °C.
The same measure for `CC1(C)CCC(C)(C)c2cc(S(=O)(=O)n3c(CCCC(=O)O)cc4cc(Cl)ccc43)ccc21`: 64 to 66 °C.
As for `N#Cc1ccc(N(Cc2ccc(O)c(Br)c2)n2cnnc2)cc1-c1ccccc1`, the melting point is 218 to 220 °C.
In the case of `N#Cc1c(N)nc2ccc([N+](=O)[O-])cc2c1NCc1ccccc1` it was 280 to 283 °C.
In the case of `O=C1N(Cc2ccc(-c3ccno3)cc2)c2ccccc2C12COc1cc3c(cc12)OCCO3` (stereo unspecified) it was 209 to 212 °C; in that of `COc1ncc(-c2cc(NC(=O)c3csc(CN4C[C@@H](C)O[C@@H](C)C4)n3)c3cn[nH]c3c2)cc1NS(=O)(=O)c1ccc(F)cc1F`, 211 to 212 °C.
In the case of `COC(=O)Cc1cc(C(C)=O)ccc1OCc1ccccc1` it was 85 to 87 °C; in that of `Cc1nc(N)c2nc(CNC(=O)C3CC3)n(CC(C)C)c2c1C`, 182 to 184 °C.
`CSc1nc(-c2ccccc2)n(-c2ccc(C)cc2)c(=O)c1C#N` gave a melting point of 258 to 260 °C.
The compound `O=C(Nc1ccccc1CS(=O)c1nccn1-c1ccccn1)c1ccccc1` (stereo unspecified) returned a melting point of 109 to 111 °C.
The compound `Oc1nsc(Cc2ccccc2)n1` registered a melting point of 50 °C.
For `CC(=O)c1ccc(N2Cc3ccccc3C2=O)cc1`, the melting point lay in the range of 235 to 237 °C.
In the case of `CC#CCOc1ccc(SC(C(=O)NO)c2ccc(Cl)cc2)cc1` (stereo unspecified) it was 152 °C; in that of `CC(C)n1cnc(-c2ccc(F)cc2)c1-c1ccncc1`, 179 to 180 °C; in that of `O=C(NC1CCN(C2CCCCC2)C1)c1cc([N+](=O)[O-])cc([N+](=O)[O-])c1` (stereo unspecified), 159 to 161 °C.
Regarding `CCCCOc1c(CNC(=O)OC(C)(C)C)n(CC(C)C)c(=O)c2ccc(-c3nc(C(=O)OCC)cs3)cc12`, the melting point came out at 172 °C.
In the case of `CC(C)Oc1cc(CCCOc2cc(CCC(=O)O)n(Cc3ccccc3)n2)n(Cc2ccc(Cl)cc2Cl)n1` it was 123 to 126 °C; in that of `OC1Cc2cc(F)cc(F)c2C1` (stereo unspecified), 52 to 56 °C.
In the case of `N#Cc1ccc(NC(=O)CN2CCC(Cc3ccc(F)cc3)CC2)cc1` it was 113 to 116 °C; in that of `COc1cc2ncnc(N3CCN(C(=S)Nc4ccc(S(=O)(=O)N5CCCCC5)cc4)CC3)c2cc1OC`, 149 to 150 °C; in that of `CNc1cc(Oc2ccc(NC(=O)Nc3ccc(-c4cccnc4)c(C(F)(F)F)c3)cc2)ncn1`, 118 to 123 °C.
Consider `CC(=O)c1ccc(NC(=O)Nc2cc(C(C)=O)cc(C(C)=O)c2)cc1`, for which the melting point was in the range of 251 to 252 °C.
The same measure for `CCCOc1ccc(C(=O)Nc2ccc3cc(CN4CCCC4)cnc3c2C)c(F)c1`: 146 °C; for `CCC(=O)C(CCCCCCOc1ccc2c(c1)OCO2)C(=O)CC`: 45 to 46 °C.
Compound `COC(=O)CNc1cc(CS(=O)(=O)C=Cc2c(OC)cc(OC)cc2OC)ccc1OC` had a melting point of 182 to 185 °C.
The same measure for `COc1c(Br)ccc2ccc(Cl)nc12`: 130 to 132 °C; for `CN(Cc1ccc(NC(=O)C2=Cc3cc(-c4cc5ccccc5s4)ccc3S(=O)(=O)CC2)cc1)C1CCOCC1`: 270 to 271 °C; for `CCOC(=O)c1ccc(C(=O)/C=C/c2ccc(SC)cc2)cc1`: 115 to 116 °C.
In the case of `COc1cccc(Oc2ncccc2C=O)c1` it was 76 to 78 °C; in that of `COC(=O)C(=O)c1ccccc1COc1ccc(-c2ccccc2)cc1`, 106 to 107 °C.
In turn, `CNc1ccc(/C=C/c2c(F)cccc2Cl)cc1` came in with a melting point of 43 to 45 °C.
`Cc1ccc(Cn2c(=O)c3c(Cl)cc(Cl)cc3n(Cc3ccccc3)c2=O)cc1`: the melting point was in the range of 166 to 169 °C.
As for `CCN(CC)CCCCC(=O)c1cccc2cc3c(C(=O)CCCCN(CC)CC)cccc3cc12`, the melting point lay within 65 to 67 °C.
Consider `Nc1ncnc2c1ncn2Cc1ccccc1`, for which the melting point lay within 231 to 232 °C.
In turn, `CCOC(=O)c1c(C)nc2sc3c(c2c1-c1ccccc1)CCCC3` came in with a melting point of 118 to 120 °C.
The same measure for `CC(=O)O[C@H]1CCCNC1=O`: 77 to 78 °C; for `O=C(Nc1ccc(C#CCCN2CC=C(c3ccccc3)CC2)nc1)c1cccs1`: 187 to 188 °C.
The same measure for `COc1cccc(C(=O)Nc2ccc(OCCN3CCOCC3)c3ccccc23)c1`: 105 to 107 °C.
In the case of `N#CC1(Nc2ccccc2)CCN(C2c3ccccc3-c3ccccc32)CC1` it was 165 °C.
As to `[N-]=[N+]=NC1CC(n2cc(C(I)=CI)c(=O)[nH]c2=O)OC1COC(c1ccccc1)(c1ccccc1)c1ccccc1` (stereo unspecified), the melting point was determined as 139 °C.
In the case of `CC(=O)N1CCc2cc(C3=NNC(=O)CC3C)ccc21` (stereo unspecified) it was 258 to 261 °C.
`CCOC(=O)/C=C/c1cccc(-c2c(CC(=O)Nc3ccc(F)cc3C(F)(F)F)c(=O)oc3cc(Cl)c(C)cc23)c1` yielded a melting point of 193 to 196 °C.
The compound `Cc1cc2cc(CN3CCCCCC3)cnc2cc1NC(=O)c1ccc(-c2ccccc2)cc1F` came in with a melting point of 151 °C.
Compound `c1ccc2c(c1)N[C@H]1CCNCC[C@@H]21` (relative stereo) returned a melting point of 102 to 114 °C.
In the case of `C=CCn1ccc(=O)[nH]c1=O` it was 108 to 109 °C.
In turn, `CC(=O)C1C(C)CC2C3CCC4CC(O)CCC4(C)C3C(=O)CC21C` (stereo unspecified) had a melting point of 138 to 140 °C.
In the case of `O[C@@H]1CNCC[C@H]1Oc1ccc2c(c1)CCCC2` (relative stereo) it was 125 to 127 °C; in that of `CCCC(Oc1ccccc1COc1ccc2oc(-c3nc(C(C)(C)C)cs3)cc2c1)C(=O)O` (stereo unspecified), 135 to 136 °C.
In the case of `CC(C#N)(NC(=O)c1c(Cl)cccc1Cl)c1ncc(C(F)(F)F)cc1Cl` (stereo unspecified) it was 166 to 167 °C; in that of `Cc1ccc(N)cc1/C=C/c1nc(C(C)C)cs1`, 60 to 61 °C; in that of `CC(=O)OCCSc1nc(C(C)(C)C)n[nH]1`, 114 to 115 °C.
`O=C(O)c1ccc(OCC2COC(=O)N2c2ccc(Cl)cc2)cc1` (stereo unspecified): the melting point fell in the range of 219 to 221 °C.
In the case of `COC(=O)C(=O)c1ccc(OCCOc2ccc3ccccc3c2)c([N+](=O)[O-])c1` it was 127 to 129 °C; in that of `COc1cc(-c2cc3ccccc3[nH]2)cc(OC)c1OS(=O)(=O)c1ccccc1`, 150 °C.
The same measure for `Cc1c(C#N)c(-c2ccc(C#N)cc2)c(C)n1Cc1cnc(Cl)c(CO)c1`: 147 to 148 °C.
`Cc1cccc(C(=O)Nc2nc3ccccc3c(NCc3ccccc3)c2C#N)c1` gave a melting point of 230 °C.
In the case of `O=[N+]([O-])c1ccc(S(=O)CCCCl)cc1` (stereo unspecified) it was 72.5 to 74.5 °C; in that of `Cn1cc(I)c(=O)n(C)c1=O`, 226 to 228 °C.
Regarding `NC(=O)c1cccc(NC(=O)C(CS)Cc2ccccc2)c1` (stereo unspecified), the melting point lay within 159 to 164 °C.
